Measurements reported in patent US7767659B2, “Synthesis of naturally occurring ecteinascidins and related compounds” (Pharma Mar, S.A., priority 2002, dated 2010).

Assays:
A-549 = assay: cells; conditions: Homo sapiens, A549, 48 h; for GI50: read-out: A549 GI50; for CC50: read-out: A549 LC50; for IC (TGI): read-out: A549 TGI
Summary of the method: (§1)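 Colorimetric SRB read (490 nm) on triplicate wells after 48 h at 37 °C, 5% CO2. Dose range 10 to 10^−8 μg/ml; 5×10^3 cells/well pre-attached 18 h.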

HT-29 = assay: cells; conditions: Homo sapiens, HT-29, 48 h; for GI50: read-out: HT29 GI50; for CC50: read-out: HT29 LC50; for IC (TGI): read-out: HT29 TGI
Summary of the method: as §1

LoVo = assay: cells; conditions: Homo sapiens, LoVo, 48 h; for GI50: read-out: LOVO GI50; for CC50: read-out: LOVO LC50; for IC (TGI): read-out: LOVO TGI
Summary of the method: as §1

DU-145 = assay: Inhibition of cells growth by colorimetric assay (SRB); conditions: Homo sapiens, DU-145, 48 h; for GI50: read-out: DU145 GI50; for CC50: read-out: DU145 LC50; for IC (TGI): read-out: DU145 TGI
Description: (§2) This form of the assay employs 96 well cell culture microplates of 9 mm diameter (Faircloth, 1988; Mosmann, 1983). Most of the cell lines are obtained from American Type Culture Collection (ATCC) derived from different human cancer types.
(§3) Cells are maintained in RPMI 1640 10% FBS, supplemented with 0.1 g/l penicillin and 0.1 g/l streptomycin sulfate and then incubated at 37° C., 5% CO2 and 98% humidity. For the experiments, cells were harvested from subconfluent cultures using trypsin and resuspended in fresh medium before plating.
(§4) Cells are seeded in 96 well microtiter plates, at 5×10^3 cells per well in aliquots of 195 μl medium, and they are allowed to attach to the plate surface by growing in drug free medium for 18 hours. Afterward, samples are added in aliquots of 5 μl in a ranging from 10 to 10^−8 μg/ml, dissolved in DMSO/EtOH/PBS (0.5:0.5:99). After 48 hours exposure, the antitumor effect are measured by the SRB methodology: cells are fixed by adding 50 μl of cold 50% (wt/vol) trichloroacetic acid (TCA) and incubating for 60 minutes at 4° C. Plates are washed with deionized water and dried. One hundred μl of SRB solution (0.4% wt/vol in 1% acetic acid) is added to each microtiter well and incubated for 10 minutes at room temperature. Unbound SRB is removed by washing with 1% acetic acid. Plates are air dried and bound stain is solubilzed with Tris buffer. Optical densities are read on a automated spectrophotometric plate reader at a single wavelength of 490 nm.
(§5) The values for mean +/− SD of data from triplicate wells are calculated. Some parameters for cellular responses can be calculated: GI=growth inhibition, TGI=total growth inhibition (cytostatic effect) and LC=cell killing (cytotoxic effect).

HeLa-APL = assay: as above; conditions: Homo sapiens, 48 h; for GI50: read-out: HELA-APL GI50; for CC50: read-out: HELA-APL LC50; for IC (TGI): read-out: HELA-APL TGI
Description: as §2, §3, §4, §5

HeLa = assay: as above; conditions: Homo sapiens, HeLa, 48 h; for GI50: read-out: HELA GI50; for CC50: read-out: HELA LC50; for IC (TGI): read-out: HELA TGI
Description: as §2, §3, §4, §5

IGROV-1 = assay: as above; conditions: Homo sapiens, IGROV-1, 48 h; for GI50: read-out: IGROV GI50; for CC50: read-out: IGROV LC50; for IC (TGI): read-out: IGROV TGI
Description: as §2, §3, §4, §5

IGROV-ET = assay: as above; conditions: Homo sapiens, 48 h; for GI50: read-out: IGROV-ET GI50; for CC50: read-out: IGROV-ET LC50; for IC (TGI): read-out: IGROV-ET TGI
Description: as §2, §3, §4, §5

K-562 = assay: as above; conditions: Homo sapiens, K562, 48 h; for GI50: read-out: K562 GI50; for CC50: read-out: K562 LC50; for IC (TGI): read-out: K562 TGI
Description: as §2, §3, §4, §5

LNCaP = assay: as above; conditions: Homo sapiens, LNCaP, 48 h; for GI50: read-out: LNCAP GI50; for CC50: read-out: LNCAP LC50; for IC (TGI): read-out: LNCAP TGI
Description: as §2, §3, §4, §5

LoVo-Dox = assay: as above; conditions: Homo sapiens, 48 h; for GI50: read-out: LOVO-DOX GI50; for CC50: read-out: LOVO-DOX LC50; for IC (TGI): read-out: LOVO-DOX TGI
Description: as §2, §3, §4, §5

PANC-1 = assay: as above; conditions: Homo sapiens, PANC-1, 48 h; for GI50: read-out: PANC-1 GI50; for CC50: read-out: PANC-1 LC50; for IC (TGI): read-out: PANC-1 TGI
Description: as §2, §3, §4, §5

SK-BR-3 = assay: as above; conditions: Homo sapiens, SK-BR-3, 48 h; for GI50: read-out: SK-BR3 GI50; for CC50: read-out: SK-BR3 LC50; for IC (TGI): read-out: SK-BR3 TGI
Description: as §2, §3, §4, §5

SK-MEL-28 = assay: as above; conditions: Homo sapiens, SK-MEL-28, 48 h; for GI50: read-out: MEL-28 GI50; for CC50: read-out: MEL-28 LC50; for IC (TGI): read-out: MEL-28 TGI
Description: as §2, §3, §4, §5

## COC1=C(C)C(=O)C2=C(C1=O)[C@@H]1C3[C@@H]4SC[C@]5(NCCc6c5[nH]c5ccccc65)C(=O)OC[C@@H](c5c6c(c(C)c(OC(C)=O)c54)OCO6)N3[C@@H](O)[C@H](C2)N1C (stereo partly shown) [ET-736-quinone]
A-549
  GI50: 25.6 nM
  CC50: 109 nM
  IC (TGI): 52.9 nM
HT-29
  GI50: 51.2 nM
  CC50: 13000 nM
  IC (TGI): 128 nM
LoVo
  GI50: 265 nM
  CC50: 1300 nM
  IC (TGI): 596 nM
DU-145
  GI50: 45.1 nM
  CC50: 129 nM
  IC (TGI): 76.3 nM
HeLa-APL
  GI50: 55.5 nM
  CC50: 111 nM
  IC (TGI): 78.4 nM
HeLa
  GI50: 3320 nM
  CC50: 114 nM
  IC (TGI): 6140 nM
IGROV-1
  GI50: 67.1 nM
  CC50: 735 nM
  IC (TGI): 215 nM
IGROV-ET
  GI50: 510 nM
  CC50: 1200 nM
  IC (TGI): 782 nM
K-562
  GI50: 4.96 nM
  CC50: 105 nM
  IC (TGI): 13.7 nM
LNCaP
  GI50: 24.8 nM
  CC50: 79.9 nM
  IC (TGI): 44.6 nM
LoVo-Dox
  GI50: 747 nM
  CC50: 13000 nM
  IC (TGI): 3280 nM
PANC-1
  GI50: 394 nM
  CC50: 13000 nM
  IC (TGI): 957 nM
SK-BR-3
  GI50: 5.33 nM
  CC50: 192 nM
  IC (TGI): 11.3 nM
SK-MEL-28
  GI50: 123 nM
  CC50: 718 nM
  IC (TGI): 300 nM

## COC1=C(C)C(=O)C2=C(C1=O)C1C3[C@@H]4SCC(=O)C(=O)OC[C@@H](c5c6c(c(C)c(OC(C)=O)c54)OCO6)N3[C@@H](O)[C@H](C2)N1C (stereo partly shown) [Et-594-quinone]
A-549
  GI50: 2350 nM
  CC50: 10300 nM
  IC (TGI): 4910 nM
HT-29
  GI50: 653 nM
  CC50: 16300 nM
  IC (TGI): 1710 nM
LoVo
  GI50: 759 nM
  CC50: 16300 nM
  IC (TGI): 2910 nM
DU-145
  GI50: 1990 nM
  CC50: 14600 nM
  IC (TGI): 5390 nM
HeLa-APL
  GI50: 398 nM
  CC50: 1140 nM
  IC (TGI): 674 nM
HeLa
  GI50: 343 nM
  CC50: 1120 nM
  IC (TGI): 620 nM
IGROV-1
  GI50: 452 nM
  CC50: 3640 nM
  IC (TGI): 958 nM
IGROV-ET
  GI50: 4370 nM
  CC50: 16300 nM
  IC (TGI): 9110 nM
K-562
  GI50: 137 nM
  CC50: 1620 nM
  IC (TGI): 478 nM
LNCaP
  GI50: 274 nM
  CC50: 901 nM
  IC (TGI): 498 nM
LoVo-Dox
  GI50: 6270 nM
  CC50: 16300 nM
  IC (TGI): 13100 nM
PANC-1
  GI50: 1580 nM
  CC50: 14900 nM
  IC (TGI): 4860 nM
SK-BR-3
  GI50: 302 nM
  CC50: 1160 nM
  IC (TGI): 593 nM
SK-MEL-28
  GI50: 413 nM
  CC50: 1320 nM
  IC (TGI): 738 nM

## COc1cc2c(cc1O)CCN[C@]21C[S+]([O-])[C@@H]2c3c(OC(C)=O)c(C)c4c(c3[C@H](COC1=O)N1C2C2c3c(cc(C)c(OC)c3O)C[C@@H]([C@@H]1O)N2C)OCO4 (stereo partly shown) [Et-759B]
A-549
  GI50: 26.2 nM
  CC50: 702 nM
  IC (TGI): 61.3 nM
HT-29
  GI50: 41.9 nM
  CC50: 12900 nM
  IC (TGI): 2290 nM
LoVo
  GI50: 327 nM
  CC50: 118 nM
  IC (TGI): 62.1 nM
DU-145
  GI50: 391 nM
  CC50: 11900 nM
  IC (TGI): 3200 nM
HeLa-APL
  GI50: 35.9 nM
  CC50: 1040 nM
  IC (TGI): 102 nM
HeLa
  GI50: 21.3 nM
  CC50: 527 nM
  IC (TGI): 64.2 nM
IGROV-1
  GI50: 22.9 nM
  CC50: 10000 nM
  IC (TGI): 65.2 nM
IGROV-ET
  GI50: 58.2 nM
  CC50: 1710 nM
  IC (TGI): 273 nM
K-562
  GI50: 6 nM
  CC50: 12900 nM
  IC (TGI): 37.9 nM
LNCaP
  GI50: 4.64 nM
  CC50: 52.2 nM
  IC (TGI): 16.7 nM
LoVo-Dox
  GI50: 192 nM
  CC50: 12900 nM
  IC (TGI): 625 nM
PANC-1
  GI50: 35.5 nM
  CC50: 11000 nM
  IC (TGI): 122 nM
SK-BR-3
  GI50: 5.37 nM
  CC50: 88.1 nM
  IC (TGI): 11.6 nM
SK-MEL-28
  GI50: 19.7 nM
  CC50: 123 nM
  IC (TGI): 49.1 nM

## COc1cc2c(cc1O)CCN[C@]21CS[C@@H]2c3c(OC(C)=O)c(C)c4c(c3[C@H](COC1=O)N1C2C2c3c(cc(C)c(OC)c3O)C[C@@H]([C@@H]1C#N)N2C)OCO4 (stereo partly shown) [Et-770]
A-549
  GI50: 3.24 nM
  CC50: 5200 nM
  IC (TGI): 6.98 nM
HT-29
  GI50: 5.86 nM
  CC50: 13000 nM
  IC (TGI): 13 nM
LoVo
  GI50: 3.09 nM
  CC50: 11.4 nM
  IC (TGI): 5.93 nM
DU-145
  GI50: 4.16 nM
  CC50: 13000 nM
  IC (TGI): 32 nM
HeLa-APL
  GI50: 2.96 nM
  CC50: 12.2 nM
  IC (TGI): 6.01 nM
HeLa
  GI50: 5.09 nM
  IC (TGI): 12.6 nM
IGROV-1
  GI50: 3.32 nM
  CC50: 13000 nM
  IC (TGI): 8.51 nM
IGROV-ET
  GI50: 12.1 nM
  CC50: 13000 nM
  IC (TGI): 4500 nM
K-562
  GI50: 1.65 nM
  CC50: 6630 nM
  IC (TGI): 8.02 nM
LNCaP
  GI50: 1.48 nM
  CC50: 6.34 nM
  IC (TGI): 3.06 nM
LoVo-Dox
  GI50: 74.1 nM
  IC (TGI): 13000 nM
PANC-1
  GI50: 5.53 nM
  CC50: 13000 nM
  IC (TGI): 115 nM
SK-BR-3
  GI50: 0.986 nM
  CC50: 13000 nM
  IC (TGI): 94.8 nM
SK-MEL-28
  GI50: 2.63 nM
  CC50: 10.8 nM
  IC (TGI): 5.34 nM
